Experimental data reported in patent publication US11091428B2 (HAPLOGEN GMBH, priority 2016, dated 2021).

Legend:
PLA2G16 = target: T1, PLA2G16 (Homo sapiens, UniProt P53816); test: Enzyme activity assay for PLA2G16 (Red/Green BODIPY PC-A2 fluorescence); format: biochemical; settings: His-tagged PLA2G16, 4 min pre-incubation, 2 nM to 50 μM; read-out: IC50 values of the compounds determined in the enzyme activity assay for PLA2G16
T1 construct: Hexa-His (N); made in house; host or cells: E. coli BL21(DE3)
T1 sequence (P53816 1-162): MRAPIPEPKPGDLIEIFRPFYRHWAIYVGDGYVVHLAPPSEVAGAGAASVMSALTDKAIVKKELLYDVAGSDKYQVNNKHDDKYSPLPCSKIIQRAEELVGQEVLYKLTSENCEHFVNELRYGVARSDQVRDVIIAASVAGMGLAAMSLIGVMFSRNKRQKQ
How it was run: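 N-His-tagged human PLA2G16 from E. coli, Ni-NTA purified. Pre-incubated 4 min with compound (2 nM–50 μM final) in pH 8.5 Tris/NaCl buffer with 5 mM glutathione, then BODIPY PC-A2 in DOPC/DOPG/cholesterol vesicles added. Fluorescence (ex 480/em 530 nm) increase over 10 min taken as activity; IC50 by non-linear regression.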

[1] = test system: picornaviruses (CVB1, HRV-A2, HRV-A23, EV-68); test: Anti-picornavirus cytopathic effect (CPE) reduction assay on HeLa H1 cells; format: cell-based; settings: Enterovirus B, HeLa H1, 48 h, HeLa H1 cells, 48 h, category from averaging the EC50 values from four picornaviruses (CVB1, HRV-A2, HRV-A23, EV68); read-out: EC50 values of the compounds determined in the anti-picornavirus assay
How it was run: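 HeLa H1 cells pre-treated 2 h with serially diluted compound in DMEM/2% FBS, then infected at an MOI giving full CPE in 2 days. After 48 h at 37° C, viability read by CellTiterBlue fluorescence (ex 560/em 590 nm), normalised to infected and uninfected vehicle controls; EC50 by non-linear regression, category from mean of four viruses.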

Compound	IC50 (PLA2G16) [nM]	EC50 [1] [nM]
C[C@@H]1CC(=O)N(Cc2ccccc2)[C@H]1C(=O)C(=O)NC1CC1 (single isomer, unassigned) [FP 340]	< 1000	< 1000
CC(C)C(C(=O)C(=O)NCC1CC1)N(C=O)CC(C)(C)C (stereo not drawn) [FP 31, N-(Cyclopropylmethyl)-3-[N-(2,2-dimethylpropyl)formamido]-4-methyl-2-oxopentanamide]	< 1000	1000 to 10000
CC(C(=O)C(=O)NCC1CCCCC1)N(C)C(=O)c1ccccc1 (stereo not drawn) [FP 176, N-(Cyclohexylmethyl)-3-(N-methyl-1-phenylformamido)-2-oxobutanamide]	< 1000	< 1000
CCOCCOCCNC(=O)C(=O)[C@H]1CCC(=O)N1Cc1ccccc1 [FP 302, 2-[(2R)-1-Benzyl-5-oxopyrrolidin-2-yl]-N-[2-(2-ethoxyethoxy)ethyl]-2-oxoacetamide]	< 1000	1000 to 10000
CC(C)SCCNC(=O)C(=O)C1CCC(=O)N1Cc1ccc(Cl)cc1 (stereo not drawn) [FP 257, 2-{1-[(4-Chlorophenyl)methyl]-5-oxopyrrolidin-2-yl}-2-oxo-N-[2-(propan-2-ylsulfanyl)-ethyl]acetamide]	< 1000	< 1000
COC(=O)N(CC1CCOCC1)C(C)C(=O)C(=O)NCC(C)C (stereo not drawn) [FP 152, Methyl N-{1-[(2-methylpropyl)carbamoyl]-1-oxopropan-2-yl}-N-[(oxan-4-yl)methyl]carbamate]	1000 to 10000	> 10000
CCC(NC(=O)c1ccncc1)C(=O)C(=O)NCC1CCCCC1 (stereo not drawn) [FP 208, N-(Cyclohexylmethyl)-2-oxo-3-[(pyridin-4-yl)formamido]pentanamide]	< 1000	> 10000
CC(C)C(=O)NCCNC(=O)C(=O)[C@H]1CCC(=O)N1Cc1ccccc1 [FP 331, N-(2-{2-[(2R)-1-Benzyl-5-oxopyrrolidin-2-yl]-2-oxoacetamido}ethyl)-2-methyl-propanamide]	< 1000	1000 to 10000
CC(C)C(=O)N(C)C(C)C(=O)C(=O)NCC1CC1 (stereo not drawn) [FP 151, N-(Cyclopropylmethyl)-3-(N,2-dimethylpropanamido)-2-oxobutanamide]	1000 to 10000	> 10000
O=C(NC1CC(F)(F)C1)C(=O)[C@H]1CCC(=O)N1Cc1ccccc1 [FP 268, 2-[(2R)-1-Benzyl-5-oxopyrrolidin-2-yl]-N-(3,3-difluorocyclobutyl)-2-oxoacetamide]	< 1000	< 1000
CC(C)CNC(=O)C(=O)C(C)N(C=O)Cc1ccccc1 (stereo not drawn) [FP 47, 3-(N-Benzylformamido)-N-(2-methylpropyl)-2-oxobutanamide]	< 1000	1000 to 10000
O=C(NCC1CC1)C(=O)C1CCC(=O)N1CC1CCCC1 (stereo not drawn) [FP 280, 2-[1-(Cyclopentylmethyl)-5-oxopyrrolidin-2-yl]-N-(cyclopropylmethyl)-2-oxoacetamide]	< 1000	< 1000
COc1ccccc1N(C=O)C(C(=O)C(=O)NCc1cccc(Cl)c1)C(C)C (stereo not drawn) [FP 35, N-[(3-Chlorophenyl)methyl]-3-[N-(2-methoxyphenyl)formamido]-4-methyl-2-oxopentanamide]	< 1000	1000 to 10000
O=C(NC1CCN(S(=O)(=O)C2CC2)CC1)C(=O)[C@H]1CCC(=O)N1Cc1ccccc1 [FP 320, 2-[(2R)-1-Benzyl-5-oxopyrrolidin-2-yl]-N-[1-(cyclopropanesulfonyl)piperidin-4-yl]-2-oxoacetamide]	< 1000	< 1000
COc1ccccc1N(C=O)C(C)C(=O)C(=O)NCc1ccc(F)c(Cl)c1 (stereo not drawn) [FP 93, N-[(3-Chloro-4-fluorophenyl)methyl]-3-[A (2-methoxyphenyl)formamido]-2-oxobutanamide]	< 1000	< 1000
CCNC(=O)C(=O)C1CCC(=O)N1Cc1ccc(C)s1 (stereo not drawn) [FP 278, N-Ethyl-2-{1-[(5-methylthiophen-2-yl)methyl]-5-oxopyrrolidin-2-yl}-2-oxoacetamide]	< 1000	1000 to 10000
O=C(NC1CC1)C(=O)C1CCC(=O)N1CC1CCCC1 (stereo not drawn) [FP 279, 2-[1-(Cyclopentylmethyl)-5-oxopyrrolidin-2-yl]-N-cyclopropyl-2-oxoacetamide]	< 1000	1000 to 10000
COc1ccccc1N(C=O)C(C)C(=O)C(=O)NCc1c(C)cccc1C (stereo not drawn) [FP 99, N-[(2,6-Dimethylphenyl)methyl]-3-[N-(2-methoxyphenyl)formamido]-2-oxobutanamide]	< 1000	1000 to 10000
